From ChEMBL document CHEMBL3045028, “Synthesis, AntiBacteriol, and Antifungal Activities of Some New Benzimidazoles” (1992)
Activity calls are given as the source filed them. The rule behind the calls is not given here.

Assays:
Format in all cases: functional
[1] = system: Agrobacterium sp.; assay: In vitro antibacterial activity against Agrobacterium radiobacter pv. tumefaciens assessed as inhibition at 0.1 %
[2] = system: Xanthomonas campestris pv. campestris; assay: In vitro antibacterial activity against Xanthomonas campestris pv. campestris KF2 assessed as inhibition at 0.1 %
[3] = system: Xanthomonas euvesicatoria; assay: In vitro antibacterial activity against Xanthomonas euvesicatoria P-2092 assessed as inhibition at 0.1 %
[4] = system: Botrytis cinerea; assay: In vitro antifungal activity against Botryotinia fuckeliana assessed as inhibition at 0.1 %
[5] = system: Pseudomonas viridiflava; assay: In vitro antibacterial activity against Pseudomonas viridiflava 8 assessed as inhibition at 0.1 %
[6] = system: Pseudomonas savastanoi pv. glycinea; assay: In vitro antibacterial activity against Pseudomonas syringae pv. glycinea S1 assessed as inhibition at 0.1 %
[7] = system: Pseudomonas savastanoi pv. phaseolicola; assay: In vitro antibacterial activity against Pseudomonas syringae pv. phaseolicola E81 assessed as inhibition at 0.1 %
[8] = system: Xanthomonas phaseoli pv. phaseoli; assay: In vitro antibacterial activity against Xanthomonas campestris pv. phaseoli assessed as inhibition at 0.1 %

Structure (SMILES) | diameter of the inhibition zone (DIZ) [1] [cm] | diameter of the inhibition zone (DIZ) [2] [cm] | diameter of the inhibition zone (DIZ) [3] [cm] | also measured
Cc1cccc(OCn2c(/N=C/c3ccc([N+](=O)[O-])o3)nc3ccccc32)c1 | 3 | 3 | 3 | –
Cc1cc2ncn(Cc3cccc(Cl)c3)c2cc1C | – | 1 | 2 | diameter of the inhibition zone (DIZ) [4]: 1 cm; diameter of the inhibition zone (DIZ) [5]: 2 cm; diameter of the inhibition zone (DIZ) [6]: 2 cm; inhibition [7]: inactive; inhibition [8]: inactive
CCCCn1cnc2cc(C)c(C)cc21 | 3 | 2 | 2 | diameter of the inhibition zone (DIZ) [4]: 3 cm
O=[N+]([O-])c1ccc(/C=N/c2nc3ccccc3n2Cc2cccc(F)c2)o1 | 3 | 3 | 3 | –
Cc1ccccc1Cn1c(N)nc2ccccc21 | 3 | 3 | 3 | –
Cc1cc2nc(N)n(/N=C/c3ccc([N+](=O)[O-])o3)c2cc1C | 3 | 3 | 3 | –
Cc1ccc(Cn2c(N)nc3cc(C)c(C)cc32)cc1 | 3 | 2 | 2 | –
CCn1c(N)nc2ccccc21 | 3 | 3 | 1 | diameter of the inhibition zone (DIZ) [4]: 3 cm
Cc1ccc(Cn2c(N)nc3ccccc32)cc1 | 3 | 3 | 3 | –
Cc1cc2nc(/N=C/c3ccc([N+](=O)[O-])o3)n(Cc3cccc(Cl)c3)c2cc1C | 3 | – | – | inhibition [4]: inactive
O=[N+]([O-])c1ccc(/C=N/c2nc3ccccc3n2Cc2ccc(Cl)cc2)o1 | 3 | – | – | inhibition [4]: inactive
Cc1cc2nc(N)n(Cc3cccc(F)c3)c2cc1C | 3 | 3 | 3 | –
Cc1cccc(Cn2cnc3cc(C)c(C)cc32)c1 | 3 | 2 | 3 | –
Cc1cc2nc(/N=C/c3ccc([N+](=O)[O-])o3)n(Cc3ccccc3Cl)c2cc1C | 3 | – | 3 | diameter of the inhibition zone (DIZ) [8]: 3 cm
Cc1cc2nc(/N=C/c3ccc([N+](=O)[O-])o3)[nH]c2cc1C | 3 | 3 | 3 | –
Cc1cc2ncn(C(C)(C)C)c2cc1C | 3 | 3 | 3 | –

Structure (SMILES) | diameter of the inhibition zone (DIZ) [1] [cm] | diameter of the inhibition zone (DIZ) [2] [cm] | diameter of the inhibition zone (DIZ) [3] [cm] | also measured
CCn1c(N)nc2cc(C)c(C)cc21 | 2 | 3 | 3 | diameter of the inhibition zone (DIZ) [4]: 3 cm
Cc1cc2nc(N)n(Cc3ccccc3Cl)c2cc1C | 3 | 2 | 3 | –
Cc1ccc(Cn2c(/N=C/c3ccc([N+](=O)[O-])o3)nc3cc(C)c(C)cc32)cc1 | 3 | – | 3 | diameter of the inhibition zone (DIZ) [8]: 3 cm
CCCCn1c(/N=C/c2ccc([N+](=O)[O-])o2)nc2cc(C)c(C)cc21 | – | – | – | diameter of the inhibition zone (DIZ) [4]: 3 cm
Nc1nc2ccccc2n1Cc1cccc(F)c1 | 3 | 3 | 3 | –
Cc1ccccc1Cn1c(/N=C/c2ccc([N+](=O)[O-])o2)nc2ccccc21 | 3 | 3 | 3 | –
Cc1cc2nc(/N=C/c3ccc([N+](=O)[O-])o3)n(Cc3cccc(F)c3)c2cc1C | 3 | – | 3 | diameter of the inhibition zone (DIZ) [8]: 3 cm
Cc1cc2c(cc1C)[n+](N)cn2Cc1ccc(Cl)cc1.O=S(=O)([O-])c1ccccc1 | – | 2 | 2 | diameter of the inhibition zone (DIZ) [5]: 2 cm; inhibition [6]: inactive; inhibition [7]: inactive; diameter of the inhibition zone (DIZ) [8]: 2 cm
CCn1cnc2cc(C)c(C)cc21 | 3 | 3 | 3 | –
COc1cccc(Cn2cnc3cc(C)c(C)cc32)c1 | 3 | 2 | 3 | –
Cc1cc2nc(N)n(Cc3ccc(Cl)cc3)c2cc1C | – | 2 | 1 | diameter of the inhibition zone (DIZ) [5]: 1 cm; diameter of the inhibition zone (DIZ) [6]: 2 cm; diameter of the inhibition zone (DIZ) [7]: 2 cm; diameter of the inhibition zone (DIZ) [8]: 1 cm
CC(C)(C)n1c(N)nc2ccccc21 | – | – | – | diameter of the inhibition zone (DIZ) [4]: 3 cm
Nc1nc2ccccc2n1/N=C/c1ccc([N+](=O)[O-])o1 | – | 2 | 1 | diameter of the inhibition zone (DIZ) [5]: 2 cm; diameter of the inhibition zone (DIZ) [6]: 2 cm; diameter of the inhibition zone (DIZ) [7]: 2 cm; diameter of the inhibition zone (DIZ) [8]: 3 cm
Cc1cccc(Cn2c(/N=C/c3ccc([N+](=O)[O-])o3)nc3ccccc32)c1 | 3 | 3 | 2 | –
Cc1cc2ncn(Cc3ccccc3C)c2cc1C | 3 | 2 | 3 | –
